According to patent publication US12729192B2, “CDK9 inhibitor and use thereof” (PHARMABLOCK SCIENCES (NANJING), INC., priority 2020, dated 2026):

Assays:
Assay type in all cases: biochemical
[1] = target: CDK9 (Homo sapiens, UniProt P50750); test: CDK9 kinase activity inhibition (ADP-Glo); conditions: 10 μM ATP, 2 h at room temperature
Protocol: (§1) CDK9 kinase was manufactured by the company or commercially available. CDK1, CDK2 and CDK7 were purchased from Carna Biosciences, Inc. ADP-Glo™ kit was purchased from Promega Corporation. Dithiothreitol (DTT), Tween-20, dimethylsulfoxide (DMSO), bovine serum albumin (BSA) and Tris base were obtained from Sigma at the available highest level of purity.
(§2) General procedures for CDK inhibition determination: The determination was performed in a buffer consisting of 50 μM DTT, 0.1% BSA, 40 mM Tris-HCl pH=7.5 and 20 mM MgCl2. The compound dissolved in DMSO and CDK enzymes were diluted with the buffer. 1 μL of the compound solution in 5% DMSO and 2 μL of the CDK enzyme solution were added to a white low-volume 384-well microtiter plate and incubated for 20 min at room temperature. Ultra pure ATP and the substrate polypeptide (purchased from GenScript Biotech Corporation) were diluted together into the buffer and added to a mixed solution of the compound and the enzyme, 2 μL per well. They were incubated for 2 h at room temperature.
(§3) After the reaction was completed, 5 μL of ADP-Glo™ reagent was added to each well and incubated for 40 min at room temperature, and then 10 μL of test reagent was added to each well and incubated for 30 mi at room temperature. Chemical luminescence values were measured by using a Tecan (Männedorf, Switzerland) multifunctional plate reader Spark for plate reading. The IC50 value of the inhibitor was obtained by fitting the chemical luminescence intensity ratio in the S-shaped dosage reaction curve using Prism 7 (La Jolla, 15 CA) relative to the concentration of the inhibitor.

[2] = target: T1, CDK2 (Homo sapiens, UniProt P24941); test: CDK2 kinase activity inhibition (ADP-Glo); conditions: 10 μM ATP, 2 h at room temperature
T1 construct: purchased Carna Biosciences, Inc
Protocol: as §1, §2, §3

[3] = target: T2, CDK1 (Homo sapiens, UniProt P06493); test: CDK1 kinase activity inhibition (ADP-Glo); conditions: 50 μM ATP, 2 h at room temperature
T2 construct: purchased Carna Biosciences, Inc
Protocol: as §1, §2, §3

[4] = target: T3, CDK7 (Homo sapiens, UniProt P50613); test: CDK7 kinase activity inhibition (ADP-Glo); conditions: 10 μM ATP, 2 h at room temperature
T3 construct: purchased Carna Biosciences, Inc
Protocol: as §1, §2, §3

Sequence of CDK9 (P50750 whole entry): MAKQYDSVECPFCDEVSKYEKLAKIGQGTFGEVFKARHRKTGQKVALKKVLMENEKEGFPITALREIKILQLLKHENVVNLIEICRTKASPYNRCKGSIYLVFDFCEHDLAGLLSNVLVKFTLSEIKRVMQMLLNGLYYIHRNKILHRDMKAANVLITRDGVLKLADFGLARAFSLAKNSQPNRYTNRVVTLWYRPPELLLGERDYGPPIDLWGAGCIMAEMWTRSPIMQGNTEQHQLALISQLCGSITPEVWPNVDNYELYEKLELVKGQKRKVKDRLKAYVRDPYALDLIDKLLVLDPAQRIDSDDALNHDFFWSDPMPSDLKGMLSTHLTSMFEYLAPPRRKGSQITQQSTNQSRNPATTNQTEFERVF
Sequence of CDK9 (O60563 whole entry partner): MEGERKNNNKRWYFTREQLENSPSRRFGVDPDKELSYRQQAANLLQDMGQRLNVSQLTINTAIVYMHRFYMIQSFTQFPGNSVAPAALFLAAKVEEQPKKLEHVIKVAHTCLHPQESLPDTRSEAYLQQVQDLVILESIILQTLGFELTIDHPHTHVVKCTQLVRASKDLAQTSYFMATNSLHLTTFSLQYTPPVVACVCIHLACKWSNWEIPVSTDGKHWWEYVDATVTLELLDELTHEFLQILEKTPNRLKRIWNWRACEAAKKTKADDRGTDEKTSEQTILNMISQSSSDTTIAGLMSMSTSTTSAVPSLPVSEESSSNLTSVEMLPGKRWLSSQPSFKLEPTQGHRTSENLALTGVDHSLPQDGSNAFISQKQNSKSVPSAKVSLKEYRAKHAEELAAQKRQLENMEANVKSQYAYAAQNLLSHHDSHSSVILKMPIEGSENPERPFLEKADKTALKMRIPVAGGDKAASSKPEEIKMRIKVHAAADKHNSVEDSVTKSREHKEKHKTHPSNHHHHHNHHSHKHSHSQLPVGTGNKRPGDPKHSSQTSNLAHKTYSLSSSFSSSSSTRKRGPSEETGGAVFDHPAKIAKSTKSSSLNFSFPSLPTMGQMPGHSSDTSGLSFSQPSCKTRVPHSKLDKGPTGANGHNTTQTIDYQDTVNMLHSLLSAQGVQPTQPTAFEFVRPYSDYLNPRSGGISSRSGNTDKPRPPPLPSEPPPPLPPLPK
T2 sequence (P06493 whole entry): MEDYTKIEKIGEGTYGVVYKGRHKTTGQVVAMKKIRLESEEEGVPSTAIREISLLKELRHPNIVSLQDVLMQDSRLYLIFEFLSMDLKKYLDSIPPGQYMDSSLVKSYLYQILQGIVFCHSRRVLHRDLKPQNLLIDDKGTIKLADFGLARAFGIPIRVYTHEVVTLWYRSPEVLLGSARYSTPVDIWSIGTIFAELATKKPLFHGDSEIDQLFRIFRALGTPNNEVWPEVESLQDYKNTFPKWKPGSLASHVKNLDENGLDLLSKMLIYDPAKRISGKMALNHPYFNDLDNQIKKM
T2 sequence (P14635 whole entry partner): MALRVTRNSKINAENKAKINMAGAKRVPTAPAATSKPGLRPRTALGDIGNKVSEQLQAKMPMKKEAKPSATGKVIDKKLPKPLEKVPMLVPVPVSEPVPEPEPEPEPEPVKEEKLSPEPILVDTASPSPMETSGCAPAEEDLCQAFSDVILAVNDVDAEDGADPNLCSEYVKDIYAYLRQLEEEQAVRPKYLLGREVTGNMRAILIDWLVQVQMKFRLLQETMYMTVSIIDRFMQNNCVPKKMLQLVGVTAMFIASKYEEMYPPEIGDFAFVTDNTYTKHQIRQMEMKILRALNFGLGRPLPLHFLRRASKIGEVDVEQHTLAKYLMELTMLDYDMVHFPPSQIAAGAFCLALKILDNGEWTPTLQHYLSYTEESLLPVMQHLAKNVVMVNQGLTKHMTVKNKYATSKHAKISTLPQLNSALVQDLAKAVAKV
T3 sequence (P50613 whole entry): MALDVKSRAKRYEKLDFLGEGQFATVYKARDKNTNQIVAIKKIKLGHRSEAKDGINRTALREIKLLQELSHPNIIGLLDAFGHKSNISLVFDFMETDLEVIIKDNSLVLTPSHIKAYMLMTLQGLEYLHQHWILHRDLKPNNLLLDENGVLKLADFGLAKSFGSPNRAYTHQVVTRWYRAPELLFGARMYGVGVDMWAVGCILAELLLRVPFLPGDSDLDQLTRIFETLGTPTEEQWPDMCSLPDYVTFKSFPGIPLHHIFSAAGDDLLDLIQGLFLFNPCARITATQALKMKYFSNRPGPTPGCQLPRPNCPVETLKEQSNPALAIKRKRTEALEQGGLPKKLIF
T3 sequence (P51946 whole entry partner): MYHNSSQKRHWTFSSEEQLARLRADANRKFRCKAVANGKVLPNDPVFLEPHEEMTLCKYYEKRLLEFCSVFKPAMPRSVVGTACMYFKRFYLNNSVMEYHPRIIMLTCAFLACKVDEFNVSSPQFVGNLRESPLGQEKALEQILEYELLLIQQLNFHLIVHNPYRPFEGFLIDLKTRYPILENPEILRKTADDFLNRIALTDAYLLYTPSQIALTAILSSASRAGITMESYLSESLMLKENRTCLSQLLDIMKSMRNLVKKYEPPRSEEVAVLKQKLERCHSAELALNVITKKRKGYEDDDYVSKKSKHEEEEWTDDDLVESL
T3 sequence (P51948 whole entry partner): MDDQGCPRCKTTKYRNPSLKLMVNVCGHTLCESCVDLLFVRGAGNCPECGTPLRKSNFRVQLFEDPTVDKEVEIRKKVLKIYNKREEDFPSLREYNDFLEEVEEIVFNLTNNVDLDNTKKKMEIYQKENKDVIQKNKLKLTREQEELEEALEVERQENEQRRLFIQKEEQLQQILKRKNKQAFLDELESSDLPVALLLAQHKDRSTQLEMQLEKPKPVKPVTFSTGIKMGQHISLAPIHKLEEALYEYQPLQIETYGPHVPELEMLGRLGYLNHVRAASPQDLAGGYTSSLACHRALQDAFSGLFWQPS

Compound	IC50 [1] [nM]	IC50 [2] [nM]	IC50 [3] [nM]	IC50 [4] [nM]
Cc1ccc(Nc2cc(OC(F)(F)F)ccn2)nc1C(=O)N1CCCN2CCCC2C1 (stereo not shown) [Compound 46, (Hexahydro-1H-pyrrolo[1,2-a][1,4]diazepin-2-2(3H)-yl)(3-methyl-6-((4-(trifluoromethoxy)pyridin-2-yl)amino)pyridin-2-yl)methanone]	86.9	770	4120	
COc1cc(Nc2ccc(C)c(C(=O)N3CC(F)(F)CC[C@@H]3CNC(C)=O)n2)ncc1Cl [Compound 10, (R)—N-((1-(6-((5-chloro-4-methoxypyridin-2-yl)amino)-3-methylpyridine-2-carbonyl)-5,5-difluoropiperidin-2-yl)methyl)acetamide]	361	> 10000	> 10000	9860
CC(=O)NC[C@H]1CCC(F)(F)CN1C(=O)c1nc(Nc2cc3[nH]ccc3cn2)ccc1C [Compound 12, (R)—N-((1-(6-((1H-pyrrolo[3,2-c]pyridin-6-yl)amino)-3-methylpyridine-2-carbonyl)-5,5-difluoropiperidin-2-yl)methyl)acetamide]	163	> 10000		> 10000
CC(=O)NC[C@H]1CCC(F)(F)CN1C(=O)c1nc(Nc2cc(OC3CCC3)ccn2)ccc1C [Compound 16, (R)—N-((1-(6-((4-cyclobutoxypyridin-2-yl)amino)-3-methylpyridine-2-carbonyl)-5,5-difluoropiperidin-2-yl)methyl)acetamide]	54.6	6350		> 10000
CC(=O)NC[C@H]1CCC(F)(F)CN1C(=O)c1cc(Nc2cc(OC(F)(F)F)ccn2)ccc1C [Compound 68, (R)—N-((5,5-difluoro-1-(2-methyl-5-((4-(trifluoromethoxy)pyridin-2-yl)amino)benzoyl)piperidin-2-yl)methyl)acetamide]	265	> 10000	> 10000	
Cc1ccc(Nc2cc(OC(F)(F)F)ccn2)nc1C(=O)N1CCCC[C@@H]1CNC(=O)OC(C)(C)C [Compound 41, (R)-((1-(3-methyl-6-((4-(trifluoromethoxy)pyridin-2-yl)amino)pyridine-2-carbonyl)piperidin-2-yl)methyl)t-butyl carbamate]	245	9260		> 10000

The next compounds have a lower IC50 [1] than those just listed; values first:

IC50 [1] [nM]	IC50 [2] [nM]	IC50 [3] [nM]	IC50 [4] [nM]	Compound
35	> 10000	> 10000		CC(=O)NC[C@H]1CCC(F)(F)CN1C(=O)c1nc(Nc2ccccn2)ccc1C [Compound 22, (R)—N-((5,5-difluoro-1-(3-methyl-6-(pyridin-2-ylamino)pyridine-2-carbonyl)piperidin-2-yl)methyl)acetamide]
19.7	> 10000	> 10000		CCOc1ccnc(Nc2ccc(C)c(C(=O)N3CC(F)(F)CC[C@@H]3CNC(=O)OC)n2)c1 [Compound 53, (R)-((1-(6-((4-ethoxypyridin-2-yl)amino)-3-methylpyridine-2-carbonyl)-5,5-difluoropiperidin-2-yl)methyl)methyl carbamate]
19.2	2870	> 10000		CC(=O)NC[C@H]1CCC(F)(F)CN1C(=O)c1nc(Nc2cc(C(C)(C)C)ccn2)ccc1C [Compound 17, (R)—N-((1-(6-((4-(t-butyl)pyridin-2-yl)amino)-3-methylpyridine-2-carbonyl)-5,5-difluoropiperidin-2-yl)methyl)acetamide]
11.6	305	1390	780	Cc1ccc(Nc2cc(OC(F)(F)F)ccn2)nc1C(=O)N1CC(F)(F)CC[C@@H]1CNS(C)(=O)=O [Compound 32, (R)—N-((5,5-difluoro-1-(3-methyl-6-((4-(trifluoromethoxy)pyridin-2-yl)amino)pyridine-2-carbonyl)piperidin-2-yl)methyl)methanesulfonamide]
8.9	2590	8730	8380	CC(=O)NC[C@H]1CCC(F)(F)CN1C(=O)c1nc(Nc2cc(C)ccn2)ccc1C [Compound 8, (R)—N-((5,5-difluoro-1-(3-methyl-6-((4-methylpyridin-2-yl)amino)pyridine-2-carbonyl)piperidin-2-yl)methyl)acetamide]
7.8	8450	> 10000	> 10000	COc1ccnc(Nc2ccc(C)c(C(=O)N3CC(F)(F)CC[C@@H]3CNC(C)=O)n2)c1 [Compound 9, (R)—N-((5,5-difluoro-1-(6-((4-methoxypyridin-2-yl)amino)-3-methylpyridine-2-carbonyl)piperidin-2-yl)methyl)acetamide]
5	6840	> 10000	> 10000	CCOc1ccnc(Nc2ccc(C)c(C(=O)N3CC(F)(F)CC[C@@H]3CNC(C)=O)n2)c1 [Compound 35, (R)—N-((1-(6-((4-ethoxypyridin-2-yl)amino)-3-methylpyridine-2-carbonyl)-5,5-difluoropiperidin-2-yl)methyl)acetamide]
4.3	12	503	> 10000	CC(=O)NC[C@H]1CCC(F)(F)CN1C(=O)c1nc(Nc2cc(C3CC(F)(F)C3)[nH]n2)ccc1C [Compound 15, (R)—N-((1-(6-((5-(3,3-difluorocyclobutyl)-1H-pyrazol-3-yl)amino)-3-methylpyridine-2-carbonyl)-5,5-difluoropiperidin-2-yl)methyl)acetamide]
3.7	180	1470	7030	Cc1ccc(Nc2cc(C#N)ccn2)nc1C(=O)N1CC(F)(F)CC[C@@H]1CNC(=O)OC(C)(C)C [Compound 31, (R)-((1-(6-((4-cyanopyridin-2-yl)amino)-3-methylpyridine-2-carbonyl)-5,5-difluoropiperidin-2-yl)methyl)t-butyl carbamate]
